Measurements reported in PubChem BioAssay (NCI).
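Briefly, cells in 96-well plates were exposed to five compound concentrations for 48 h, and endpoints were estimated by linear interpolation. GI50 = concentration required for 50% inhibition of growth. TGI marks complete inhibition of growth.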

Tests used:
Experiment in all cases: inhibition of tumour cell growth, NCI panel, 48 h
SK-MEL-2 melanoma = test system: SK-MEL-2 melanoma
SN12C renal = test system: SN12C renal
MCF7 breast = test system: MCF7 breast
KM12 colon = test system: KM12 colon
OVCAR-5 ovarian = test system: OVCAR-5 ovarian
SK-OV-3 ovarian = test system: SK-OV-3 ovarian
IGROV1 ovarian = test system: IGROV1 ovarian
MDA-MB-231 breast = test system: MDA-MB-231 breast
K-562 leukemia = test system: K-562 leukemia
HCT-15 colon = test system: HCT-15 colon
LOX IMVI melanoma = test system: LOX IMVI melanoma
HOP-62 NSCLC = test system: HOP-62 NSCLC
TK-10 renal = test system: TK-10 renal
DU-145 prostate = test system: DU-145 prostate
NCI-H226 lung = test system: NCI-H226 lung
A498 renal = test system: A498 renal
HOP-92 NSCLC = test system: HOP-92 NSCLC
UACC-62 melanoma = test system: UACC-62 melanoma
SK-MEL-5 melanoma = test system: SK-MEL-5 melanoma
HCC-2998 colon = test system: HCC-2998 colon
RPMI-8226 leukemia = test system: RPMI-8226 leukemia
HL-60(TB) leukemia = test system: HL-60(TB) leukemia
SF-295 CNS = test system: SF-295 CNS
OVCAR-8 ovarian = test system: OVCAR-8 ovarian
MALME-3M melanoma = test system: MALME-3M melanoma
HS 578T breast = test system: HS 578T breast
MDA-MB-468 breast = test system: MDA-MB-468 breast
CAKI-1 renal = test system: CAKI-1 renal
MOLT-4 leukemia = test system: MOLT-4 leukemia
BT-549 breast = test system: BT-549 breast
T-47D breast = test system: T-47D breast
SR leukemia = test system: SR leukemia
SK-MEL-28 melanoma = test system: SK-MEL-28 melanoma
RXF 393 renal = test system: RXF 393 renal
NCI-H522 lung = test system: NCI-H522 lung
PC-3 prostate = test system: PC-3 prostate
SF-539 CNS = test system: SF-539 CNS
NCI-H23 lung = test system: NCI-H23 lung
U251 CNS = test system: U251 CNS
NCI-H460 lung = test system: NCI-H460 lung
UACC-257 melanoma = test system: UACC-257 melanoma
COLO 205 colon = test system: COLO 205 colon
EKVX NSCLC = test system: EKVX NSCLC
SNB-19 CNS = test system: SNB-19 CNS
SF-268 CNS = test system: SF-268 CNS
NCI/ADR-RES ovarian = test system: NCI/ADR-RES ovarian
HCT-116 colon = test system: HCT-116 colon
A549 NSCLC = test system: A549 NSCLC
HT29 colon = test system: HT29 colon
MDA-MB-435 = test system: MDA-MB-435
OVCAR-3 ovarian = test system: OVCAR-3 ovarian
UO-31 renal = test system: UO-31 renal
SW-620 colon = test system: SW-620 colon
M14 melanoma = test system: M14 melanoma
CCRF-CEM leukemia = test system: CCRF-CEM leukemia

## N/C(=N\c1nc2ccc([N+](=O)[O-])cc2s1)NC(=O)Nc1ccccc1Cl
SK-MEL-2 melanoma
  GI50: 23 µM
  TGI: 50.2 µM
SN12C renal
  GI50: 4.2 µM
  TGI: > 100 µM
MCF7 breast
  GI50: 7.69 µM
  TGI: > 100 µM
KM12 colon
  GI50: 6.95 µM
  TGI: > 100 µM
OVCAR-5 ovarian
  GI50: 4.12 µM
  TGI: > 100 µM
SK-OV-3 ovarian
  GI50: 6.63 µM
  TGI: 28.2 µM
IGROV1 ovarian
  GI50: 9.77 µM
  TGI: > 100 µM
MDA-MB-231 breast
  GI50: 2.45 µM
  TGI: 6.88 µM
K-562 leukemia
  GI50: 3.56 µM
  TGI: > 100 µM
HCT-15 colon
  GI50: 6.92 µM
  TGI: > 100 µM
LOX IMVI melanoma
  GI50: 9.3 µM
  TGI: > 100 µM
HOP-62 NSCLC
  GI50: 10.8 µM
  TGI: 94.4 µM
TK-10 renal
  GI50: 3.6 µM
  TGI: > 100 µM
DU-145 prostate
  GI50: 5.63 µM
  TGI: > 100 µM
NCI-H226 lung
  GI50: 5 µM
  TGI: > 100 µM
A498 renal
  GI50: 4.53 µM
  TGI: 38 µM
HOP-92 NSCLC
  GI50: 2.97 µM
  TGI: 17.5 µM
UACC-62 melanoma
  GI50: 14.9 µM
  TGI: 66.6 µM
SK-MEL-5 melanoma
  GI50: 11.4 µM
  TGI: 38.6 µM
HCC-2998 colon
  GI50: 61.4 µM
  TGI: > 100 µM
RPMI-8226 leukemia
  GI50: 72.2 µM
  TGI: > 100 µM
HL-60(TB) leukemia
  GI50: 22.4 µM
  TGI: > 100 µM
SF-295 CNS
  GI50: 17.6 µM
  TGI: 90.9 µM
OVCAR-8 ovarian
  GI50: 3.9 µM
  TGI: > 100 µM
MALME-3M melanoma
  GI50: 4.56 µM
  TGI: > 100 µM
HS 578T breast
  GI50: 12.1 µM
  TGI: > 100 µM
MDA-MB-468 breast
  GI50: 3.16 µM
  TGI: 13.1 µM
CAKI-1 renal
  GI50: 3.58 µM
  TGI: > 100 µM
MOLT-4 leukemia
  GI50: 40 µM
  TGI: > 100 µM
BT-549 breast
  GI50: 4.07 µM
  TGI: > 100 µM
T-47D breast
  GI50: 2.71 µM
  TGI: > 100 µM
SR leukemia
  GI50: 2.17 µM
  TGI: > 100 µM
SK-MEL-28 melanoma
  GI50: 26.2 µM
  TGI: > 100 µM
RXF 393 renal
  GI50: 3.79 µM
  TGI: > 100 µM
NCI-H522 lung
  GI50: 3.46 µM
  TGI: 41.5 µM
PC-3 prostate
  GI50: 28.9 µM
  TGI: > 100 µM
SF-539 CNS
  GI50: 4.55 µM
  TGI: 28.2 µM
NCI-H23 lung
  GI50: 4.55 µM
  TGI: > 100 µM
U251 CNS
  GI50: 2.3 µM
  TGI: 6.18 µM
NCI-H460 lung
  GI50: 3.1 µM
  TGI: 8.71 µM
UACC-257 melanoma
  GI50: 45.5 µM
  TGI: > 100 µM
COLO 205 colon
  GI50: 6.91 µM
  TGI: 76.2 µM
EKVX NSCLC
  GI50: 12.4 µM
  TGI: > 100 µM
SNB-19 CNS
  GI50: 10.2 µM
  TGI: > 100 µM
SF-268 CNS
  GI50: 15.1 µM
  TGI: > 100 µM
NCI/ADR-RES ovarian
  GI50: 3.97 µM
  TGI: > 100 µM
HCT-116 colon
  GI50: 1.69 µM
  TGI: 3.46 µM
A549 NSCLC
  GI50: 3.09 µM
  TGI: > 100 µM
HT29 colon
  GI50: 13.9 µM
  TGI: > 100 µM
MDA-MB-435
  GI50: 2.26 µM
  TGI: 7.77 µM
OVCAR-3 ovarian
  GI50: 2.41 µM
  TGI: 6.16 µM
UO-31 renal
  GI50: 3.19 µM
  TGI: > 100 µM
SW-620 colon
  GI50: 5.11 µM
  TGI: > 100 µM
M14 melanoma
  GI50: 13.1 µM
  TGI: 38.5 µM
CCRF-CEM leukemia
  GI50: 46.9 µM
  TGI: > 100 µM
